{"source": "patent US11564909B2", "about": "“Methods and compositions for oral pilocarpine liquid” (ROMEG Therapeutics LLC, priority 2020, dated 2023)", "key": {"Caco-2 cells": {"tested_on": "Caco-2 cells", "experiment": "in vitro", "protocol": "(§1) The objective of this study was to evaluate the bidirectional Caco-2 permeability of three formulations of test article Pilocarpine at three pH levels (pH 5.7, 6.5, 7.4) using calibration curve quantitation.\n(§2) Samples were analyzed by LC/MS/MS using an Waters Xevo TQ mass spectrometer coupled with an Acuity HPLC and a CTC PAL chilled autosampler, all controlled by MassLynx software (Waters). After separation on a C18 reverse phase (Waters Acquity HSS T3 2.1×50 mm […]) using an acetonitrile-water gradient system, peaks were analyzed by mass spectrometry (MS) using ESI ionization in MRM mode.\n(§3) Tables 16-17 show the HPLC gradients used and the experiment conditions of the Caco-2 permeability test, respectively.\n(§4) Caco-2 cells grown in tissue culture flasks were trypsinized, suspended in medium, and the suspensions were applied to wells of a Millipore 96 well plate. The cells were allowed to grow and differentiate for three weeks, feeding at 2-day intervals.\n(§5) For Apical to Basolateral (A→B) permeability, the test article was added to the apical (A) side and amount of permeation was determined on the basolateral (B) side; for Basolateral to Apical (B→A) permeability, the test article was added to the B side and the amount of permeation was determined on the A side. […] Caco-2 cells were incubated with test articles in these buffers for 2 hours, and at the end of the assay, donor and receiver side solution samples were collected, quenched by 100% methanol containing an internal standard and centrifuged at 5000 rpm for 10 minutes at 4° C. Following centrifugation, the supernatant for donor and receiver side samples were analyzed by LC-MS/MS.\n(§6) Data is expressed as permeability (Papp):\n(§7) [formula] dQ/dt is rate of permeation, C0 is initial concentration of test article, and A is the area of monolayer.\n(§8) In bidirectional permeability studies, Efflux Ratio (Re) is also calculated:\n(§9) [formula] Re>2 indicates a potential substrate for P-gp or other active efflux transporters. The donor, dosing and receiver side sample concentrations were calculated based on the calibration curve prepared in buffer matrix in the range of 1-20,000 nM."}, "in vitro": {"experiment": "in vitro", "conditions": "human, Caco-2", "protocol": "as §1, §2, §3, §4, §5, §6, §7, §8, §9"}}, "data": [{"smiles": "COCCc1ccc(OCC(O)CNC(C)C)cc1", "note": "(stereo not drawn) [Metoprolol]", "values": [{"measurement": "Comments (permeability class)", "setting": "Caco-2 cells", "value": "High permeability"}, {"measurement": "Papp A→B at 2 h, 10 μM", "setting": "in vitro", "value": 19.4, "unit": "×10⁻⁶ cm/s"}, {"measurement": "Papp B→A at 2 h, 10 μM", "setting": "in vitro", "value": 42.7, "unit": "×10⁻⁶ cm/s"}, {"measurement": "efflux ratio at 2 h, 10 μM", "setting": "in vitro", "value": 2.22}]}, {"smiles": "CNC(=C[N+](=O)[O-])NCCSCc1ccc(CN(C)C)o1", "note": "[Ranitidine]", "values": [{"measurement": "Comments (permeability class)", "setting": "Caco-2 cells", "value": "Low permeability"}, {"measurement": "Papp A→B at 2 h, 10 μM", "setting": "in vitro", "value": 0.585, "unit": "×10⁻⁶ cm/s"}, {"measurement": "Papp B→A at 2 h, 10 μM", "setting": "in vitro", "value": 3.13, "unit": "×10⁻⁶ cm/s"}, {"measurement": "efflux ratio at 2 h, 10 μM", "setting": "in vitro", "value": 5.41}]}, {"smiles": "CC[C@@H]1C(=O)OC[C@@H]1Cc1cncn1C", "note": "[pilocarpine, (3S,4R)-3-Ethyl-4-((1-methyl-1H-imidazol-5-yl)methyl)dihydrofuran-2(3H)-one]", "values": [{"measurement": "BCS permeability classification", "setting": "Caco-2 cells", "value": "high permeability"}]}]}
